We go through two compounds from PubChem BioAssay AID602482 (Sanford-Burnham Center for Chemical Genomics, 2012).

Active and inactive are the calls of the source.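 How the source made its calls: active means compounds whose mean concentration giving half-maximal cell killing is 20 µM or lower; inactive means the rest.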

The assay deals with NTR1-U2OS viability, ATPLite luminescence, 24 h. Description: cytotoxicity in NTR1-U2OS cells, SAR follow-up, cytotoxicity control for NTR1 agonist project, cell-based, luminescence, ATPLite (AID 602482). A general note: ATP-based viability assays read luminescence as a measure of living cells.

The term IC50 denotes the concentration at which inhibition is half-maximal.

`COc1cccc(OC)c1-c1nc(C(=O)N[C@@H](CC(C)C)C(=O)O)cn1-c1ccnc2cc(Cl)ccc12`: the IC50 is > 80 µM (inactive). Consider `COc1cc2nc(C3CC3)nc(N3CCN(c4ccccc4OC)CC3)c2cc1OC`, for which the IC50 was 25.4 µM (inactive).
